# Measured values: patent US11667602B2, “Compounds and their use” (AstraZeneca AB, priority 2020, dated 2023)
# Where two headings read alike, the source gives them in different places.
# Biological target: T1, human RXFP1 (Homo sapiens, UniProt Q9HBX9)
# T1 sequence (Q9HBX9 1-757): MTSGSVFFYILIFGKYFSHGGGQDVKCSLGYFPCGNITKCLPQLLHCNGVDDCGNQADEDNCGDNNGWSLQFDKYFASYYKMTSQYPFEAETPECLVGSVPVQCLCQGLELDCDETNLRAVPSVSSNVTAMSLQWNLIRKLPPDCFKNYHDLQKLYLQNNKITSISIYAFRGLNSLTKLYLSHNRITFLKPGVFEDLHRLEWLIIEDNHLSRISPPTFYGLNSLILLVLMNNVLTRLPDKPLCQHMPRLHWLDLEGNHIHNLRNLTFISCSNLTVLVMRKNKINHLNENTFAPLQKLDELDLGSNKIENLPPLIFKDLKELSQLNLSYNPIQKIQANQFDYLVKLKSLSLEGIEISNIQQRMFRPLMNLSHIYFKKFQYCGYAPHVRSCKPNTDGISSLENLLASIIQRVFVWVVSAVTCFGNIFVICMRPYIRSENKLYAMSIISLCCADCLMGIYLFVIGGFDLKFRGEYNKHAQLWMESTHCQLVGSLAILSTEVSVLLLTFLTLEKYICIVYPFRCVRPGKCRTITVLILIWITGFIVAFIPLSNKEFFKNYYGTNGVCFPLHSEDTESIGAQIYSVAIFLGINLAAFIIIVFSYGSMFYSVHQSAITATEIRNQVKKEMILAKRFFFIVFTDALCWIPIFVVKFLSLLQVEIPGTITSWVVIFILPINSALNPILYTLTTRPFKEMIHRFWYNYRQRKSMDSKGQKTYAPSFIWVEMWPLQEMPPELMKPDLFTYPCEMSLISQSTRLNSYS
# Assay: RXFP1 Hu cAMP (Test A)
# Assay type: cell-based
# Design: expressed in transfected cells; host or cells: Jump-In T-REx CHO-K1 cells (ThermoFisher), induced with 10 ng/ml doxycycline for 24 h
# Excerpt: To screen for modulators of hRXFP1, an assay identifying compounds that stimulate cAMP production via the Gs-coupled hRXFP1 receptor was used. cAMP HiRange HTRF kit (available from CisBio Bioassays, France; catalogue number 62AM6PEJ) was employed in large according to manufacturer's recommendations for detection of cAMP. The HTRF method is a competitive immunoassay between native cAMP produced by cells and cAMP labeled with the dye d2. The tracer binding is visualized with a cryptate labeled antibody for cAMP and the signal is thus inversely proportional to the amount of produced cAMP.
# Cells: Jump-In™ T-REx™ CHO-K1 Cells (ThermoFisher) stably transfected with human RXFP1 was employed. Cells were induced to express human RXFP1 by treatment with 10 ng/ml doxycycline for 24 h. Cells were then cryopreserved for long term storage.
# HTRF detection reagents: cAMP-d2 and anti-cAMP cryptate reconstituted according to CisBio instructions were diluted 1:40 in lysis buffer provided with the HTRF-kit.
# 3. 4 μL assay buffer with 1 mM IBMX (0.5 mM final concentration) to block phosphodiesterases was added with Multidrop Combi (ThermoFisher).
# 6. 4 μL cAMP-d2 in lysis buffer was added with Multidrop Combi.
# 7. 4 μL anti-cAMP cryptate in lysis buffer was added with Multidrop Combi
# 8. 2 h incubation at room temperature
# Using a cAMP standard curve, HTRF data was converted to amount cAMP produced in the samples which was subsequentially used for calculation of concentration responses. Concentration response data were fitted with a four parameter logistic fit, the Hill equation. The results from the assay are reported in Table 36 as EC50 (μM) and Sinf (%).
# Where the assay was run multiple times for the same compound, the geometric mean is reported.
# Sinf is the fitted activity level, efficacy, at infinite concentration of test compound. To facilitate comparison of efficacy data, efficacy was normalized to % effect of the response stimulated by a saturating concentration of relaxin (1 nM). Where the assay was run multiple times for the same compound, the arithmetic mean is reported.
# [1] = RXFP1 Hu cAMP, read-out: Test A EC50
Compound,Test A Sinf (RXFP1 Hu cAMP) [%],EC50 [1] [µM],"EC50 (Test A EC50, RXFP1 Hu cAMP) [µM]"
"(1R,4s)-4-(2-Fluoro-5-(((3S*,4R*)-4-((4-fluoro-3-(pentafluoro-λ6-sulfaneyl)phenyl)carbamoyl)tetrahydrofuran-3-yl)carbamoyl)-4-methoxyphenoxy)-1-methylcyclohexane-1-carboxylic acid [Example 565]",113,–,–
COc1cc(C#N)c(O[C@H]2CC[C@@](C)(C(=O)O)CC2)cc1C(=O)N[C@@H]1[C@H]2CC[C@H](C2)[C@@H]1C(=O)NCCCOC(C)C [Example 122],71,1.3,–
COc1cc(F)c(O[C@H]2CC[C@@](C)(C(=O)O)CC2)cc1C(=O)N[C@@H]1CC[C@@H]1C(=O)NCC(C)(C)C (racemic) [Example 346],96,–,–
"COc1cc(F)c(-c2ccc(C(=O)O)cc2)cc1C(=O)N[C@H]1[C@@H]2CC[C@@H](C2)[C@H]1C(=O)N[C@H]1CCCN(S(=O)(=O)C(F)(F)F)C1 (single isomer, unassigned) [Example 313, 2′-Fluoro-4′-methoxy-5′-(((1R*,2S*,3R*,4S*)-3-(((S)-1-((trifluoromethyl)sulfonyl)piperidin-3-yl)carbamoyl)bicyclo[2.2.1]heptan-2-yl)carbamoyl)-[1,1′-biphenyl]-4-carboxylic acid]",–,> 40,–
"O=C(O)c1ccc(-c2cc(C(=O)N[C@H]3[C@@H](C(=O)Nc4cccc(S(=O)(=O)C(F)(F)F)c4)[C@@H]4C=C[C@H]3C4)ccc2F)cc1 (racemic) [Example 305, rac-2′-Fluoro-5′-(((1R,2R,3S,4S)-3-((3-((trifluoromethyl)sulfonyl)phenyl)carbamoyl)bicyclo[2.2.1]hept-5-en-2-yl)carbamoyl)-[1,1′-biphenyl]-4-carboxylic acid]",–,> 40,–
"CCCNC(=O)[C@H]1[C@@H]2CC[C@@H](C2)[C@H]1NC(=O)c1cc(O[C@H]2CC[C@@](C)(C(=O)O)CC2)c(C#N)cc1OC [Example 116, (1S,4s)-4-(2-Cyano-4-methoxy-5-(((1S,2R,3S,4R)-3-(propylcarbamoyl)bicyclo[2.2.1]heptan-2-yl)carbamoyl)phenoxy)-1-methylcyclohexane-1-carboxylic acid]",106,0.86,–
"COc1cc(F)c(O[C@H]2CC[C@@](C)(c3noc(=O)[nH]3)CC2)cc1C(=O)N[C@@H]1[C@H]2CC[C@H](C2)[C@@H]1C(=O)NCC1(C)CCC1 [Example 418, (1R,2S,3R,4S)-3-(4-fluoro-2-methoxy-5-(((1s,4S)-4-methyl-4-(5-oxo-4,5-dihydro-1,2,4-oxadiazol-3-yl)cyclohexyl)oxy)benzamido)-N-((1-methylcyclobutyl)methyl)bicyclo[2.2.1]heptane-2-carboxamide]",100,–,0.064
COc1cc(C#N)c(O[C@H]2CC[C@@](C)(C(=O)O)CC2)cc1C(=O)N[C@@H]1CCCC[C@@H]1C(=O)NCC1(C)CCC1 [Example 361],91,0.78,–
COCc1cc(F)c(O[C@H]2CC[C@@](C)(C(=O)O)CC2)cc1C(=O)N[C@@H]1[C@H]2CC[C@H](C2)[C@@H]1C(=O)NCC1(C)CCC1 [Example 380],–,> 2.5,–
COc1cc(C(F)(F)F)c(O[C@H]2CC[C@@](C)(C(=O)O)CC2)cc1C(=O)N[C@@H]1[C@H]2CC[C@H](C2)[C@@H]1C(=O)NCC1(C)CCC1 [Example 372],96,–,0.021
COc1cc(F)c(O[C@H]2CC[C@@](CO)(C(=O)O)CC2)cc1C(=O)N[C@@H]1C[C@@H](OC)C[C@@H]1C(=O)NCC(C)(C)C (racemic) [Example 338],104,4.1,–
COc1cc(F)c(-c2ccc(C(=O)O)cc2)cc1C(=O)N[C@@H]1CC[C@@H]1C(=O)Nc1cccc(S(=O)(=O)C(F)(F)F)c1 (racemic) [Example 301],69,–,–

# The next lines start with results.
Test A Sinf (RXFP1 Hu cAMP) [%],EC50 [1] [µM],Compound,"EC50 (Test A EC50, RXFP1 Hu cAMP) [µM]"
91,0.16,COc1cc(F)c(OCCCCCC(=O)O)cc1C(=O)N[C@H]1[C@@H](C(=O)Nc2cccc(S(=O)(=O)C(F)(F)F)c2)[C@@H]2C=C[C@H]1C2 (racemic) [Example 455],–
–,> 40,"COc1cc(F)c(OC2CCC(CO)(C(=O)O)CC2)cc1C(=O)N[C@H]1[C@@H](C(=O)NCC2(C)CCC2)[C@H]2CC[C@@H]1O2 (relative stereo) [Example 533, (1R,4s)-4-(2-Fluoro-4-methoxy-5-(((1S*,2S*,3R*,4R*)-3-(((1-methylcyclobutyl)methyl)carbamoyl)-7-oxabicyclo[2.2.1]heptan-2-yl)carbamoyl)phenoxy)-1-(hydroxymethyl)cyclohexane-1-carboxylic acid]",–
101,2,COc1cc(F)c(O[C@H]2CC[C@@](C)(C(=O)O)CC2)cc1C(=O)N[C@@H]1[C@H]2CC[C@H](C2)[C@@H]1C(=O)N[C@@H](C)C(C)(C)C#N [Example 616],–
91,–,"COc1cc(F)c(OC[C@H]2C[C@H](C(=O)O)C2)cc1C(=O)N[C@@H]1[C@@H]2CC[C@@H](C2)[C@@H]1C(=O)Nc1cccc(S(=O)(=O)C(F)(F)F)c1 [Example 472, (1R,3r)-3-((2-Fluoro-4-methoxy-5-(((1R,2R,3S,4S)-3-((3-((trifluoromethyl)sulfonyl)phenyl)carbamoyl)bicyclo[2.2.1]heptan-2-yl)carbamoyl)phenoxy)methyl)cyclobutane-1-carboxylic acid]",–
91,0.6,"COc1cc(F)c(O[C@H]2CC[C@@](C)(C(=O)O)CC2)cc1C(=O)N[C@@H]1[C@H]2CC[C@H](C2)[C@@H]1C(=O)N[C@H]1CCCC1(C)C (relative stereo) [Example 504, (1S,4s)-4-(5-(((1S,2R,3S,4R)-3-(((R*)-2,2-Dimethylcyclopentyl)carbamoyl)bicyclo[2.2.1]heptan-2-yl)carbamoyl)-2-fluoro-4-methoxyphenoxy)-1-methylcyclohexane-1-carboxylic acid]",–
94,1.3,"COc1cc(F)c(OC2CCC(CO)(C(=O)O)CC2)cc1C(=O)N[C@H]1C[C@H](OC)C[C@H]1C(=O)NCC(C)(C)C (relative stereo) [Example 549, (1R,4s)-4-(2-Fluoro-4-methoxy-5-(((1S*,2R*,4R*)-4-methoxy-2-(neopentylcarbamoyl)cyclopentyl)carbamoyl)phenoxy)-1-(hydroxymethyl)cyclohexane-1-carboxylic acid]",–
104,0.029,"COc1cc(F)c(OC2CCC(O)(C(=O)O)CC2)cc1C(=O)NC1C2CCC(C2)C1C(=O)Nc1cccc(S(=O)(=O)C(F)(F)F)c1 [Example 582, (1R,4r)-4-(2-Fluoro-4-methoxy-5-(((1R*,2R*,3S*,4S*)-3-((3-((trifluoromethyl)sulfonyl)phenyl)carbamoyl)bicyclo[2.2.1]heptan-2-yl)carbamoyl)phenoxy)-1-hydroxycyclohexane-1-carboxylic acid]",–
129,–,COc1cc(F)c(OCCCC(=O)O)cc1C(=O)N[C@H]1[C@@H](C(=O)Nc2cccc(S(=O)(=O)C(F)(F)F)c2)[C@@H]2C=C[C@H]1C2 (racemic) [Example 456],–
90,0.42,COc1cc(F)c(O[C@H]2CC[C@@](C)(C(=O)O)CC2)cc1C(=O)N[C@@H]1[C@H]2CC[C@H](C2)[C@@H]1C(=O)N[C@H]1CCN(S(=O)(=O)C(F)(F)F)C1 [Example 606],–
